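The compound was tested at five concentrations on cells cultured in 96-well plates, with a 48-hour exposure period. TGI: concentration producing complete growth inhibition.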
Key:
Assay in all cases: NCI tumour cell line growth inhibition, 48 h
KM12 colon = test system: KM12 colon
MDA-MB-435 = test system: MDA-MB-435
HS 578T breast = test system: HS 578T breast
NCI-H226 lung = test system: NCI-H226 lung
TK-10 renal = test system: TK-10 renal
NCI-H23 lung = test system: NCI-H23 lung
SK-MEL-28 melanoma = test system: SK-MEL-28 melanoma
BT-549 breast = test system: BT-549 breast
LOX IMVI melanoma = test system: LOX IMVI melanoma
RPMI-8226 leukemia = test system: RPMI-8226 leukemia
A549 NSCLC = test system: A549 NSCLC
HL-60(TB) leukemia = test system: HL-60(TB) leukemia
HCC-2998 colon = test system: HCC-2998 colon
CCRF-CEM leukemia = test system: CCRF-CEM leukemia
SR leukemia = test system: SR leukemia
UO-31 renal = test system: UO-31 renal
NCI-H460 lung = test system: NCI-H460 lung
MDA-MB-231 breast = test system: MDA-MB-231 breast
HCT-15 colon = test system: HCT-15 colon
SF-539 CNS = test system: SF-539 CNS
EKVX NSCLC = test system: EKVX NSCLC
IGROV1 ovarian = test system: IGROV1 ovarian
COLO 205 colon = test system: COLO 205 colon
NCI/ADR-RES ovarian = test system: NCI/ADR-RES ovarian
UACC-62 melanoma = test system: UACC-62 melanoma
SW-620 colon = test system: SW-620 colon
OVCAR-8 ovarian = test system: OVCAR-8 ovarian
SK-MEL-5 melanoma = test system: SK-MEL-5 melanoma
CAKI-1 renal = test system: CAKI-1 renal
PC-3 prostate = test system: PC-3 prostate
UACC-257 melanoma = test system: UACC-257 melanoma
MCF7 breast = test system: MCF7 breast
MALME-3M melanoma = test system: MALME-3M melanoma
NCI-H522 lung = test system: NCI-H522 lung
M14 melanoma = test system: M14 melanoma
SNB-75 CNS = test system: SNB-75 CNS
OVCAR-3 ovarian = test system: OVCAR-3 ovarian
OVCAR-4 ovarian = test system: OVCAR-4 ovarian
HT29 colon = test system: HT29 colon
RXF 393 renal = test system: RXF 393 renal
SF-268 CNS = test system: SF-268 CNS
MDA-N = test system: MDA-N
786-0 renal = test system: 786-0 renal
MOLT-4 leukemia = test system: MOLT-4 leukemia
A498 renal = test system: A498 renal
HOP-92 NSCLC = test system: HOP-92 NSCLC
DU-145 prostate = test system: DU-145 prostate
SK-OV-3 ovarian = test system: SK-OV-3 ovarian
U251 CNS = test system: U251 CNS
OVCAR-5 ovarian = test system: OVCAR-5 ovarian
SK-MEL-2 melanoma = test system: SK-MEL-2 melanoma
T-47D breast = test system: T-47D breast
SN12C renal = test system: SN12C renal
SNB-19 CNS = test system: SNB-19 CNS
ACHN renal = test system: ACHN renal
HOP-62 NSCLC = test system: HOP-62 NSCLC
K-562 leukemia = test system: K-562 leukemia
SF-295 CNS = test system: SF-295 CNS
HCT-116 colon = test system: HCT-116 colon

## Cc1cc2c(cc1C)N1C(Cl)=C3CCCCC3=C(C#N)C1N2 (stereo unspecified)
KM12 colon
  TGI: 24 µM
MDA-MB-435
  TGI: > 33.1 µM
HS 578T breast
  TGI: > 100 µM
NCI-H226 lung
  TGI: 30.5 µM
TK-10 renal
  TGI: 18.6 µM
NCI-H23 lung
  TGI: 14.2 µM
SK-MEL-28 melanoma
  TGI: 10.6 µM
BT-549 breast
  TGI: 8.46 µM
LOX IMVI melanoma
  TGI: 4.37 µM
RPMI-8226 leukemia
  TGI: > 100 µM
A549 NSCLC
  TGI: 45.8 µM
HL-60(TB) leukemia
  TGI: > 100 µM
HCC-2998 colon
  TGI: 22.4 µM
CCRF-CEM leukemia
  TGI: > 23.2 µM
SR leukemia
  TGI: > 100 µM
UO-31 renal
  TGI: 17.7 µM
NCI-H460 lung
  TGI: 51.8 µM
MDA-MB-231 breast
  TGI: 30.1 µM
HCT-15 colon
  TGI: 7.76 µM
SF-539 CNS
  TGI: 41.6 µM
EKVX NSCLC
  TGI: 41.2 µM
IGROV1 ovarian
  TGI: 28.3 µM
COLO 205 colon
  TGI: 33.9 µM
NCI/ADR-RES ovarian
  TGI: 14.5 µM
UACC-62 melanoma
  TGI: 7.63 µM
SW-620 colon
  TGI: 4.39 µM
OVCAR-8 ovarian
  TGI: 32.9 µM
SK-MEL-5 melanoma
  TGI: > 32.8 µM
CAKI-1 renal
  TGI: 12.3 µM
PC-3 prostate
  TGI: 27.3 µM
UACC-257 melanoma
  TGI: 22.3 µM
MCF7 breast
  TGI: 21.6 µM
MALME-3M melanoma
  TGI: 34.6 µM
NCI-H522 lung
  TGI: 3.91 µM
M14 melanoma
  TGI: 21.2 µM
SNB-75 CNS
  TGI: 56.9 µM
OVCAR-3 ovarian
  TGI: 30.5 µM
OVCAR-4 ovarian
  TGI: 31.7 µM
HT29 colon
  TGI: 6.94 µM
RXF 393 renal
  TGI: 29 µM
SF-268 CNS
  TGI: 60.4 µM
MDA-N
  TGI: 15.1 µM
786-0 renal
  TGI: 3.61 µM
MOLT-4 leukemia
  TGI: > 42.9 µM
A498 renal
  TGI: 33.8 µM
HOP-92 NSCLC
  TGI: > 30.4 µM
DU-145 prostate
  TGI: 36.4 µM
SK-OV-3 ovarian
  TGI: 39.6 µM
U251 CNS
  TGI: 24.6 µM
OVCAR-5 ovarian
  TGI: 36 µM
SK-MEL-2 melanoma
  TGI: 29.2 µM
T-47D breast
  TGI: 28.3 µM
SN12C renal
  TGI: 14.7 µM
SNB-19 CNS
  TGI: 45.3 µM
ACHN renal
  TGI: 10.5 µM
HOP-62 NSCLC
  TGI: 30.1 µM
K-562 leukemia
  TGI: > 100 µM
SF-295 CNS
  TGI: 42.4 µM

## COC(=O)[C@@]12OC[C@]34[C@H]([C@@H](O)[C@@H]1O)[C@@]1(C)CC(=O)C(OC(C)=O)=C(C)[C@@H]1C[C@H]3OC(=O)[C@H](OC(=O)C=C(C)C)[C@@H]24
KM12 colon
  TGI: 4.18 µM
MDA-MB-435
  TGI: 3.45 µM
HS 578T breast
  TGI: 3.32 µM
NCI-H226 lung
  TGI: 3.94 µM
TK-10 renal
  TGI: 4.75 µM
NCI-H23 lung
  TGI: 2.2 µM
SK-MEL-28 melanoma
  TGI: 2.67 µM
BT-549 breast
  TGI: 5.27 µM
LOX IMVI melanoma
  TGI: 0.981 µM
RPMI-8226 leukemia
  TGI: 3.21 µM
A549 NSCLC
  TGI: 4.92 µM
HL-60(TB) leukemia
  TGI: 1.65 µM
HCC-2998 colon
  TGI: 0.716 µM
CCRF-CEM leukemia
  TGI: 3.83 µM
SR leukemia
  TGI: 2.07 µM
UO-31 renal
  TGI: 14.5 µM
NCI-H460 lung
  TGI: 1.38 µM
MDA-MB-231 breast
  TGI: 5.8 µM
HCT-15 colon
  TGI: 7.46 µM
SF-539 CNS
  TGI: 1.82 µM
EKVX NSCLC
  TGI: 5.38 µM
IGROV1 ovarian
  TGI: 2.59 µM
COLO 205 colon
  TGI: 2.79 µM
NCI/ADR-RES ovarian
  TGI: 57.4 µM
UACC-62 melanoma
  TGI: 3.16 µM
OVCAR-8 ovarian
  TGI: 2.54 µM
SK-MEL-5 melanoma
  TGI: 1.33 µM
CAKI-1 renal
  TGI: 10.8 µM
PC-3 prostate
  TGI: 4.01 µM
UACC-257 melanoma
  TGI: 2.28 µM
MCF7 breast
  TGI: 2.99 µM
MALME-3M melanoma
  TGI: 1.2 µM
NCI-H522 lung
  TGI: 1.49 µM
M14 melanoma
  TGI: 2.63 µM
SNB-75 CNS
  TGI: 4.45 µM
OVCAR-3 ovarian
  TGI: 1.01 µM
OVCAR-4 ovarian
  TGI: 4.05 µM
HT29 colon
  TGI: 58.3 µM
RXF 393 renal
  TGI: 3.41 µM
SF-268 CNS
  TGI: 3.05 µM
MDA-N
  TGI: 3.2 µM
786-0 renal
  TGI: 3.19 µM
MOLT-4 leukemia
  TGI: 4.23 µM
A498 renal
  TGI: 1.78 µM
HOP-92 NSCLC
  TGI: 4.04 µM
DU-145 prostate
  TGI: 6.37 µM
SK-OV-3 ovarian
  TGI: 1.78 µM
U251 CNS
  TGI: 3.26 µM
OVCAR-5 ovarian
  TGI: 6.79 µM
SK-MEL-2 melanoma
  TGI: 2.79 µM
T-47D breast
  TGI: 5.93 µM
SN12C renal
  TGI: 4.52 µM
SNB-19 CNS
  TGI: 77.8 µM
ACHN renal
  TGI: 10.8 µM
HOP-62 NSCLC
  TGI: 2.86 µM
K-562 leukemia
  TGI: 9.7 µM
SF-295 CNS
  TGI: 3 µM
HCT-116 colon
  TGI: 2 µM
